Assay results reported in patent publication US20100240656A1, “COMPOUNDS AS HSP90 INHIBITORS” (ORYZON GENOMICS, S.A., priority 2007, published 2010).

Columns and labels:
[1] = system: MCF-7; test: Cell growth inhibition by AlamarBlue method, MCF-7; assay type: cell-based, human; settings: Homo sapiens, MCF7; MCF-7, 72 hours; read-out: Cell growth inhibition values (EC50) obtained with AlamarBlue method
Method: (§1) The human colon cancer cell line HCT-116 and the human breast cell lines MCF-7 and SKBr3 were from the American Type Culture Collection (ATCC; CCL-247, HTB-22 and HTB-30, respectively).
(§2) The HCT-116 and SKBr3 cell lines were maintained in DMEM GlutaMAX (Invitrogen) supplemented with 10% fetal calf serum and the MCF-7 cell line was maintained in RPMI1640 GlutaMAX (Invitrogen) containing 1 mM sodium pyruvate and 10% fetal calf serum. Cells were grown in a humidified incubator at 37° C. in 5% CO2
(§3) Cells were plated in 96-well plates (Costar, 3596) at a density of 6000 cells/well in 50 μL medium 24 h before addition of the compounds. Compounds were then added in 8 concentrations, each in triplicate (dilution series of 1 to 3). To do so, a compound-dilution plate at 200× the screening concentrations was prepared in DMSO 100% (Sigma, 154938). Then, 1.7 μL of the 200× diluted compounds were transferred to a new plate and 170 μL of media were added and mixed with the pipette (plate at 2×). Columns 11 and 12 of this plate (controls) were filled with 1% DMSO in cell media (i.e. 1.7 μL DMSO and 170 μL cell media). Finally, 50 μL of this intermediate plate at 2× were transferred to the plate containing the seeded cells and slowly shaken manually. Cells were grown as described above. AlamarBlue viability assay (Biosource, Invitrogen, DAL1100) was performed 72 hours later following manufacturer's protocol. In brief, AlamarBlue diluted in media was added to cells to have a 5% solution (a 2× solution was prepared in media and 100 μL of this solution were transferred to each well, i.e. final volume of 200 μL). Cells were incubated at 37° C., 3 hours and at room temperature for an additional 30 min. Cells with no compound and, cells with no compound and lysed with triton X-100 (30 μL/well added 10 min before treatment with AlamarBlue) were used as controls (6 replicates of each). Fluorescence was monitored at 530 nm excitation and 590 nm emission wavelengths. Results were quantified using ELx800 Universal Microplate Reader (Bio-Tek Instruments, Inc.). EC50 were calculated as the dose of compound required to inhibit cell growth by 50%.

[2] = system: SKBr3; test: Cell growth inhibition by AlamarBlue method, SKBr3; assay type: cell-based; settings: Homo sapiens, SK-BR-3; SKBr3, 72 hours; read-out: Cell growth inhibition values (EC50) obtained with AlamarBlue method
Method: as §1, §2, §3

EC50 [1] | EC50 [2] | SMILES
15.9 µM | – | NCCCCCn1c(Sc2cc3c(cc2I)OCO3)nc(C(N)=O)c1N [Example 6, 5-amino-1-(5-amino-pentyl)-2-(6-iodo-benzo[1,3]dioxol-5-ylsulfanyl)-1H-imidazole-4-carboxamide]
– | 24 to 30 µM | CCCCn1c(Sc2cc3c(cc2I)OCO3)nc(C(N)=O)c1N [Example 10, 5-amino-1-butyl-2-(6-iodo-benzo[1,3]dioxol-5-ylsulfanyl)-1H-imidazole-4-carboxamide]
